Literature values as cited in patent US20180311274A1, “IN SITU NEUTRALIZATION COMPOSITION” (Kramer Laboratories, Inc., priority 2017, published 2018).

Q: For Cc1cccc(N(C)C(=S)Oc2ccc3ccccc3c2)c1 [Tolnaftate], which solubility in water is on record?
A: The solubility in water was “practically insoluble”.
